# Data taken from patent US20220211861A1, “DRUG CONJUGATES AND METHODS OF USING SAME” (The Board of Trustees of the Leland Staford Junior …, priority 2019, published 2022).
# Where no end group is shown, it is not given here.
# B1: knottin-Ab fusion (KAb): EETI 2.5F genetically fused to the N-terminus of a full-length human IgG1 antibody against an irrelevant target (anti-FITC or … (peptide, part only; not given: carrier IgG1 antibody chains, part only)
# chain, part: GCPRPRGDNPPLTCSQDSDCLAGCVCGPNGFCG
# modifications: cysteine pairing not given here; also: genetic fusion to N-terminus of full-length human IgG1 antibody, Alexa Fluor 488 label, site not given here
# What was measured:
# [1] = target: integrin receptors on U87MG glioblastoma cells; assay: flow cytometry, direct binding of AF488-labelled protein to U87MG cells, 3 h at 4 C
# [2] = system: U87MG hip xenografts; assay: Therapeutic efficacy study, once weekly for four weeks, tumors implanted with Matrigel; format: in vivo, Nu/Nu mice; details: once weekly for 4 weeks
# Procedure: To further investigate each compound, several changes were made to the experimental design. Because of the KDC's rapid systemic clearance, a significant portion of the injected dose is likely lost and the ˜0.6 mg/kg dose was therefore increased substantially. Because dosages for chemotherapeutics are conventionally determined as mass of chemotherapeutic per patient body surface area, a more clinically relevant comparison of equal mass was selected over an equimolar comparison. Next, a once-per-week dosing regimen was selected to coincide with realistic clinical dosing considerations. Finally, tumors were implanted with Matrigel matrix to increase tumor growth and with only 2.5×10^6 cells per injection to decrease initial tumor necrosis. Mice bearing U87MG hip xenografts were equally distributed into the following treatment groups with intravenous injections given once weekly for 4 weeks: KDC, KFDC, KADC, unconjugated proteins, or a PBS control. Each drug conjugate was also evaluated at a low dose and a high dose.
# For tumor cell implantation, female Nu/Nu mice (Charles River Laboratory) were anesthetized with 2.5% isoflurane by inhalation with a flow rate of 1 L/min. A volume of 200 μL of 50/50 PBS/Matrigel (Corning), containing 2.5×10^6 U87MG cells, was injected subcutaneously into the right flank. Tumors were allowed to grow for 7 days until reaching a size of approximately 35 mm^2. For therapeutic efficacy studies, mice were binned into experimental groups to ensure equivalent average tumor sizes and starting body weights across all groups.
# Mice bearing U87MG flank xenografts, as described above, were injected intravenously with PBS, KDC, KFDC, KADC, or controls proteins. Treatments were administered once per week for four weeks. Tumors were measured three times per week using digital calipers and animal weights were recorded on each dosing day to monitor for potential weight loss as a measure of compound toxicity. Tumor area was calculated as the longest axis of the tumor multiplied by the perpendicular axis. Euthanasia criteria were defined as a tumor area greater than 150 mm^2 or a loss of 20% body weight.
# [3] = system: U87MG cells; assay: Direct binding of Alexa Fluor 488-labeled proteins to U87MG cells (flow cytometry); details: direct binding of AF488-labeled protein to U87MG cells, 3 h at 4° C.
# Procedure: (§1) The binding affinity of the constructs described in Example 1 were measured using U87MG glioblastoma cells. Drug-free protein affinities were measured directly using Alexa Fluor 488-conjugaed proteins and drug conjugates were measured via a competition binding assay displacing Alexa Fluor 488-labeled K. All constructs tested bound to U87MG cells with low-nanomolar affinity (FIG. 9A-B).
# (§2) U87MG cells were detached using Enzyme-Free Cell Dissociation Buffer (Gibco). Next, 4×10^4 cells were incubated with varying concentrations (0.01-200 nM) of Alexa Fluor 488 labeled proteins in Integrin Binding Buffer (IBB; 25 mM Tris pH 7.4, 150 mM NaCl, 2 mM CaCl2), 1 mM MgCl2, 1 mM MnCl2, and 0.1% bovine serum albumin (BSA)) for 3 h at 4° C. to minimize internalization. Cells were pelleted and washed twice with 800 μL of PBSA (phosphate buffered saline containing 0.1% bovine serum albumin) and the fluorescence of remaining surface-bound protein was measured by flow cytometry using a Guava EasyCyte 8HT instrument (EMD Millipore). Resulting data were evaluated using FlowJo software (TreeStar Inc) and equilibrium dissociation constants (Kd) were determined using Prism software (GraphPad). Error bars represent the standard deviation of experiments performed in triplicate.
# [4] = system: U87MG cells; assay: Measurement of cellular internalization of AF488-labeled proteins; format: cell-based; details: AF488-labeled protein, 37° C., 4 h, surface signal quenched
# Procedure: The cleavage of the Val-Cit-PAB linker and the subsequent release and mechanism of action of MMAE are dependent upon intracellular delivery. Thus, it was important to validate that each construct internalized efficiently. Internalization was measured by incubating Alexa Fluor 488-conjugated proteins with cells at 37° C. After a 4 h incubation, surface-bound protein was quenched using an anti-AF488 antibody, that binds any exposed fluorophores.
# U87MG cells were seeded in 24-well plates (Corning) at a density of 5×10^4 cells per well. After allowing cells to settle for >4 h, media was replaced with fresh media containing 200 nM of Alexa Fluor 488-labeled proteins and supplemented with 1 mM MnCl2. Cells were then incubated at 37° C. for 4 h. Cells were washed with 500 μL of PBS and detached using 20 μL of 0.05% trypsin/EDTA. After neutralizing trypsin and transferring each well into an Eppendorf tube, cells were washed with 800 μL of cold PBSA. Next, cells were pelleted and resuspended on ice in 50 μL of a 1:200 dilution of anti-Alexa Fluor 488 antibody (Invitrogen) to quench surface-bound protein. Cells were washed again with 800 μL of PBSA and the fluorescence of internalized protein was measured by flow cytometry as described above.
# [5] = system: U87MG cells; assay: Indirect (competition) binding assay displacing Alexa Fluor 488-labeled knottin; details: competing off 1 nM AF488-2.5F on U87MG cells
# Procedure: as §1
# as §2, with “1 nM” for “varying concentrations (0.01-200 nM)”, “knottin as a competitor and varying concentrations (0.01-500 nM) of KDC, KFDC, or KADC” for “proteins”, “IBB” for “Integrin Binding Buffer (IBB; 25 mM Tris pH 7.4, 150 mM NaCl, 2 mM CaCl2), 1 mM MgCl2, 1 mM MnCl2, and 0.1% bovine serum albumin (BSA))”
Molecule,Kd [1] [nM],tumor growth with unconjugated protein [2],Kd [3] [nM],internalization [4],Ki [5] [nM]
"knottin-Fc fusion (KFc): EETI 2.5F genetically fused to a human IgG1 Fc domain, Alexa Fluor 488-labeled",2.5,,,,
KFc: EETI 2.5F genetically fused to a human IgG1 Fc domain (GCPRPRGDNPPLTCSQDSDCLAGCVCGPNGFCG; ends and bridges not checked; also: fused to human IgG1 Fc domain (dimerising)),,indistinguishable from PBS control mice,2.5,"from least to greatest, K, KFc, then KAb",1.2
B1,2.3,,,,
